The record followed here is patent US5098900A, “3(2H)pyridazinone, process for its preparation and anti-allergic agent containing it” (Nissan Chemical Industries Ltd., priority 1984, dated 1992).

One assay concerns LTD4. As to the kind of experiment: LTD4 antagonism in isolated guinea-pig trachea (LTD4-induced contraction). The following applies: Cavia porcellus, 5 min, test compound 10^-5 g/ml, LTD4 2×10^-8 g/ml. In kind it is cell-based. How it is done: (ii) LTC4 and LTD4 antagonisms in guinea-pig trachea
Antagonism for LTC4 and LTD4 were determined in isolated guinea-pig trachea prepared as spiral strip. 10 Tracheal preparations were suspended under 1 g tension in […] and they were incubated for 1 hr prior to use. Contractile responses to LTC4 (2×10^-8 g/ml) and LTD4 (2×10^-8 g/ml) were obtained after the maximal response to histamine (10^-4 M). Test compounds dissolved in 100% dimethyl sulfoxide were added to the organ baths (final concentration of 10^-5 g/ml) 5 min prior to LTC4 and LTD4 addition, and then contractile responses to LTC4 and LTD4 were compared with those of control which was obtained from a paired trachea in the absence of test compounds. LTC4 - and LTD4 -induced contractions were expressed as a percentage of the maximal response to histamine. The antagonism was determined as follows: Antagonism (%)=(1.0-% contraction in test/% contraction in control)×100
In turn, `CCOc1cc(CNc2cnn(CC)c(=O)c2Cl)ccc1O` [compound 136] returned an inhibition at 10 µg/mL of 64%.

In turn, `CC(C)(C)n1ncc(NCc2ccc(/C=C/C(=O)NCCC(=O)O)cc2)c(Cl)c1=O` [Compound No. 61, 4-Chloro-5-[4-(β-carboxyethylaminocarbonyl-2-transethenyl)benzylamino]-2-t-butyl-3(2H)pyridazinone] returned an inhibition at 10 µg/mL of 21%.

On to `COC(=O)CCCCOc1cccc(CNc2cnn(C(C)C)c(=O)c2Cl)c1` [Compound No. 144], for which the inhibition at 10 µg/mL is 44%.

With `CCCOc1cc(CNc2cnn(C(C)C)c(=O)c2C)ccc1OC` [compound 153], at 10 µg/mL the inhibition was 45%.

`CC(C)n1ncc(NCc2ccc(OCc3ccccc3)cc2)c(Cl)c1=O` [compound 96]: the inhibition at 10 µg/mL came out at 59%.

Consider `Cc1ccc(CNc2cnn(C(C)C)c(=O)c2Br)c(C)c1` [compound 168], for which 10 µg/mL produced 99% inhibition.

The molecule `COc1ccc(OC)c(CNc2cnn(C(C)C)c(=O)c2Cl)c1` [compound 104] gave an inhibition at 10 µg/mL of 68%.

`CCOc1cccc(CNc2cnn(CC)c(=O)c2Cl)c1OC` [compound 110] yielded an inhibition at 10 µg/mL of 69%.

As for `CC(C)n1ncc(NCc2ccc(O)cc2)c(Cl)c1=O` [compound 130], the inhibition at 10 µg/mL turned out to be 100%.

`CCOCCCNC(=O)c1ccc(CNc2cnn(C(C)(C)C)c(=O)c2Cl)cc1` [compound 57] gave an inhibition at 10 µg/mL of 27%.

In turn, `COc1ccc(CNc2cnn(C(C)C)c(=O)c2Cl)cc1OCCCCC(=O)OC(C)(C)C` [compound 141] gave an inhibition at 10 µg/mL of 90%.

In turn, `CCCOc1cccc(CNc2cnn(CC)c(=O)c2Br)c1` [compound 157] yielded an inhibition at 10 µg/mL of 88%.

Take `CCCCCOc1cc(CNc2cnn(CC)c(=O)c2Cl)ccc1OC` [compound 19]: the inhibition at 10 µg/mL is 66%.

As to `CCn1ncc(NCc2ccc(C)cc2C)c(Br)c1=O` [compound 158], testing at 10 µg/mL gave an inhibition of 99%.

Turning to `COc1ccc(CNc2cnn(C(C)C)c(=O)c2Br)cc1` [compound 162], at 10 µg/mL the inhibition was 100%.

Take `CCn1ncc(NCc2ccc(OC)cc2OC)c(Br)c1=O` [compound 159]: the inhibition at 10 µg/mL was found to be 98%.

For `CCOc1cccc(CNc2cnn(C(C)C)c(=O)c2Cl)c1O` [compound 127], the inhibition at 10 µg/mL was 76%.

In turn, `CCOc1cc(CNc2cnn(CC)c(=O)c2Cl)ccc1OCc1ccccc1` [compound 115] showed an inhibition at 10 µg/mL of 73%.

For the molecule `CCc1cc(CNc2cnn(CC)c(=O)c2Cl)ccc1O` [compound 132], 10 µg/mL produced 61% inhibition.

As to `CC(C)n1ncc(NCc2cccc(O)c2)c(Cl)c1=O` [Compound No. 137, 4-Chloro-5-(3-hydroxybenzylamino)-2-i-propyl-3-(2H)pyridazinone], the inhibition at 10 µg/mL was 96%.

As for `CCOc1cc(CNc2cnn(C(C)C)c(=O)c2Cl)ccc1OCc1ccccc1` [compound 113], at 10 µg/mL the inhibition was 40%.

As for `CCc1c(NCc2ccc(C)cc2)cnn(C(C)(C)C)c1=O` [Compound No. 36, 4-Ethyl-5-(4-methylbenzylamino)-2-t-butyl-3(2H)pyridazinone], testing at 10 µg/mL gave an inhibition of 19%.

`CCOc1ccc(CNc2cnn(C(C)C)c(=O)c2Cl)cc1OC` [compound 107]: the inhibition at 10 µg/mL is 65%.

For `CCCCCOc1cc(CNc2cnn(C(C)(C)C)c(=O)c2Cl)ccc1OC` [compound 20], the inhibition at 10 µg/mL came out at 17%.

`CCn1ncc(NCc2ccc(OC)cc2)c(Br)c1=O` [compound 154] yielded an inhibition at 10 µg/mL of 100%.

As to `CCCOc1cc(CNc2cnn(CC)c(=O)c2Cl)ccc1O` [compound 134], the inhibition at 10 µg/mL was found to be 75%.

In the case of `CCc1ccc(CNc2cnn(CC)c(=O)c2Cl)cc1` [compound 81], the inhibition at 10 µg/mL turned out to be 68%.

Molecule `CCOCCNC(=O)c1ccc(CNc2cnn(C(C)(C)C)c(=O)c2Cl)cc1` [compound 56] displayed an inhibition at 10 µg/mL of 19%.

For `CCOc1cc(CNc2cnn(C(C)C)c(=O)c2Cl)ccc1O` [compound 135], the inhibition at 10 µg/mL came out at 61%.

`CCCOc1cc(CNc2cnn(C(C)C)c(=O)c2Br)ccc1OC` [compound 167] registered an inhibition at 10 µg/mL of 96%.

`COc1cc(CNc2cnn(C(C)C)c(=O)c2Cl)cc(OC)c1OC` [compound 122] showed an inhibition at 10 µg/mL of 23%.

`CCOc1cccc(CNc2cnn(C(C)C)c(=O)c2C)c1` [compound 152] had an inhibition at 10 µg/mL of 75%.

As for `CC(C)n1ncc(NCc2cccc(OCc3ccccc3)c2)c(Cl)c1=O` [Compound No. 95, 4-Chloro-5-(3-benzyloxybenzylamino)-2-i-propyl-3-(2H)pyridazinone], the inhibition at 10 µg/mL turned out to be 62%.

The molecule `CCOc1ccc(CNc2cnn(C(C)C)c(=O)c2Br)cc1` [Compound No. 164, 4-Bromo-5-(4-ethoxybenzylamino)-2-i-propyl-3(2H)pyridazinone] displayed an inhibition at 10 µg/mL of 82%.

Molecule `CCOc1cccc(CNc2cnn(CC)c(=O)c2Br)c1` [compound 156] showed an inhibition at 10 µg/mL of 72%.

In turn, `CC(C)n1ncc(NCc2cccc(OCCCCC(=O)OC(C)(C)C)c2)c(Cl)c1=O` [Compound No. 139, 4-Chloro-5-[3-(4-t-butoxycarbonyl)butoxybenzylamino]-2-i-propyl-3(2H)pyridazinone] yielded an inhibition at 10 µg/mL of 57%.

`C=CCNC(=O)c1ccc(CNc2cnn(C(C)(C)C)c(=O)c2Cl)cc1` [Compound No. 54, 4-Chloro-5-(4-allylaminocarbonylbenzylamino)-2-t-butyl-3(2H)pyridazinone] gave an inhibition at 10 µg/mL of 10%.

Turning to `CCCOc1cc(CNc2cnn(CC)c(=O)c2Cl)ccc1OCc1ccccc1` [compound 118], the inhibition at 10 µg/mL turned out to be 61%.

`CCOc1cccc(CNc2cnn(C(C)C)c(=O)c2Cl)c1OCc1ccccc1` [compound 114] displayed an inhibition at 10 µg/mL of 77%.

`COC(=O)CCCCOc1cc(CNc2cnn(C(C)C)c(=O)c2Cl)ccc1OC` [compound 145] returned an inhibition at 10 µg/mL of 81%.

Regarding `CCCOc1cc(CNc2cnn(C(C)C)c(=O)c2Cl)ccc1OCc1ccccc1` [compound 117], testing at 10 µg/mL gave an inhibition of 25%.

Molecule `CCOc1cccc(CNc2cnn(CC)c(=O)c2Cl)c1OCc1ccccc1` [compound 116] showed an inhibition at 10 µg/mL of 89%.

For the molecule `CCc1cc(CNc2cnn(CC)c(=O)c2Cl)ccc1OC` [compound 85], at 10 µg/mL the inhibition was 91%.

`CC(C)n1ncc(NCc2cccc(OCCCCC(=O)O)c2)c(Cl)c1=O` [Compound No. 142, 4-Chloro-5-[3-(4-carboxy)butoxybenzylamino]-2-i-propyl-3(2H)pyridazinone] had an inhibition at 10 µg/mL of 41%.

In the case of `CCn1ncc(NCc2ccc(N(C)C)cc2)c(Cl)c1=O` [compound 46], the inhibition at 10 µg/mL was determined as 49%.

The molecule `COc1cc(CNc2cnn(C(C)C)c(=O)c2Cl)cc(OC)c1` [compound 98] showed an inhibition at 10 µg/mL of 55%.

For `CCOc1ccc(CNc2cnn(CC)c(=O)c2Br)cc1` [compound 155], the inhibition at 10 µg/mL was found to be 60%.

Molecule `COCCCCCOc1cccc(CN(C)c2cnn(C(C)C)c(=O)c2Cl)c1` [Compound No. 149, 4-Chloro-5-[3-(5-methoxy)pentoxy-N-methylbenzylamino]-2-i-propyl-3(2H)pyridazinone] displayed an inhibition at 10 µg/mL of 68%.

`COc1ccc(CNc2cnn(C(C)C)c(=O)c2Cl)cc1OCCCCC(=O)O` [compound 143] showed an inhibition at 10 µg/mL of 28%.

As to `CCc1cc(CNc2cnn(C(C)C)c(=O)c2Cl)ccc1OCc1ccccc1` [compound 82], at 10 µg/mL the inhibition was 46%.

On to `CCOc1cccc(CNc2cnn(C(C)C)c(=O)c2)c1O` [compound 128], for which 10 µg/mL produced 21% inhibition.

In turn, `CCCN(CCC)C(=O)c1ccc(CNc2cnn(C(C)C)c(=O)c2Cl)cc1` [Compound No. 125, 4-Chloro-5-(4-di-n-propylaminocarbonylbenzylamino)-2-i-propyl-3(2H)pyridazinone] showed an inhibition at 10 µg/mL of 53%.

Turning to `CCn1ncc(NCc2cc(OC)c(OC)c(OC)c2)c(Cl)c1=O` [compound 121], the inhibition at 10 µg/mL came out at 31%.

`CCOc1cccc(CNc2cnn(C(C)C)c(=O)c2Br)c1` [compound 165] returned an inhibition at 10 µg/mL of 71%.

In turn, `COc1cccc(CNc2cnn(C(C)(C)C)c(=O)c2Cl)c1` [Compound No. 8] displayed an inhibition at 10 µg/mL of 53%.

`CCCn1ncc(NCc2ccc(N(C)C)cc2)c(Cl)c1=O` [compound 126] returned an inhibition at 10 µg/mL of 63%.

`COc1cccc(CNc2cnn(C(C)C)c(=O)c2Cl)c1` [Compound No. 7] came in with an inhibition at 10 µg/mL of 92%.

In turn, `CCOc1ccccc1CNc1cnn(C(C)C)c(=O)c1Cl` [compound 92] registered an inhibition at 10 µg/mL of 92%.

Molecule `CCCOc1cc(CNc2cnn(CC)c(=O)c2Br)ccc1OC` [compound 161] showed an inhibition at 10 µg/mL of 95%.

As to `CN(C)CCNC(=O)c1ccc(CNc2cnn(C(C)(C)C)c(=O)c2Cl)cc1` [compound 58], 10 µg/mL produced 23% inhibition.

In turn, `COc1ccc(CNc2cnn(C(C)C)c(=O)c2)c(OC)c1` [Compound No. 100, 5-(2,4-dimethoxybenzylamino)-2-i-propyl-3(2H)pyridazinone] displayed an inhibition at 10 µg/mL of 21%.

As for `CC(C)n1ncc(NCc2ccc(C=O)cc2)c(Cl)c1=O` [Compound No. 140, 4-Chloro-5-(4-formylbenzylamino)-2-i-proyl-3(2H)pyridazinone], 10 µg/mL produced 77% inhibition.

Staying with this assay, now noted: test compound 10^-5 g/ml, LTD4 2×10^-8 g/ml, 5 min.
The molecule `CC(C)n1ncc(NCc2ccc(N(C)C)cc2)c(Cl)c1=O` [compound 26] came in with an LTD4 antagonism of 38%.

Regarding `CN(C)CCNC(=O)c1ccc(CNc2cnn(C(C)(C)C)c(=O)c2Cl)cc1` [compound 50], the LTD4 antagonism is listed as 12%.

In general, inhibition refers to the change of the read-out against control, counted positive when it falls.
